Results published in paper PMC9030254, “Target Hopping from Protein Kinases to PXR: Identification of Small-Molecule Protein Kinase Inhibitors as Selective Modulators of Pregnane X Receptor from TüKIC Library” (Cells, 2022).

Key:
[1] = target: T1, VDR (Homo sapiens, UniProt P11473); experiment: Nuclear receptor selectivity reporter assay, VDR; type: cell-based; conditions: for reduction of ligand-induced VDR activation: HepG2, 10 µM compound + 1 µM 1α,25(OH)2D3
T1 construct: expressed in transfected cells; host or cells: HepG2
T1 sequence (P11473 1-427): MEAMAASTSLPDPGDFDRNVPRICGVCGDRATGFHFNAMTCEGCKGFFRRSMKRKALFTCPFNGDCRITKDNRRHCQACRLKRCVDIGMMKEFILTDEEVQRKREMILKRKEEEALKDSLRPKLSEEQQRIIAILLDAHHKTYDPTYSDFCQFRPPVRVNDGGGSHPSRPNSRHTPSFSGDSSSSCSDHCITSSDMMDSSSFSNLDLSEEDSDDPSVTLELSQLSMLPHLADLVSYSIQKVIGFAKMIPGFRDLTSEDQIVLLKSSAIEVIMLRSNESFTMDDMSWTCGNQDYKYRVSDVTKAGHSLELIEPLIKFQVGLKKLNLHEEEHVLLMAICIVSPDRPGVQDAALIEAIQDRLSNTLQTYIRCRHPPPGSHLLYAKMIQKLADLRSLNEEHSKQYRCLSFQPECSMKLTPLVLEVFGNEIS
Experimental: For testing nuclear receptor selectivity and LBP-filled PXR mutant activation, transient batch transfection was conducted as above, but with HepG2 cells and the following plasmids, with amounts per well of 0.23–0.27 µg pGL4-CYP3A4(-7830Δ7208-364) or pGL3(DR3)3Tk (as reporter for VDR), 0.01 µg pMetLuc2control, and 0.03 µg either CAR1, CAR3, VDR, or PXR(S208W/S247W/C284W) expression plasmids. In addition, 0.03 µg RXRα expression plasmid was added to CAR3 transfections. Metridia luciferase activity was measured from 10 µL of medium supernatant after adding 100 µL Renilla luciferase assay solution.
Figure 6 Selectivity of novel PXR ligands within the NR1I group of nuclear receptors. HepG2 cells were transiently transfected with CYP3A4 reporter and expression plasmids encoding (A) CAR1 or (B) CAR3, or (C) direct repeat (DR3)3 reporter and expression plasmid encoding VDR. Cells were treated with 0.2% DMSO or 10 µM chemicals as indicated. 1α,25(OH)2D3 was used at 1 µM.

[2] = target: T2, CAMKK2 (Homo sapiens, UniProt Q96RR4); experiment: Kinase profiling; type: biochemical
T2 construct: purchased ProQinase (Freiburg, Germany)
T2 sequence (Q96RR4 whole entry): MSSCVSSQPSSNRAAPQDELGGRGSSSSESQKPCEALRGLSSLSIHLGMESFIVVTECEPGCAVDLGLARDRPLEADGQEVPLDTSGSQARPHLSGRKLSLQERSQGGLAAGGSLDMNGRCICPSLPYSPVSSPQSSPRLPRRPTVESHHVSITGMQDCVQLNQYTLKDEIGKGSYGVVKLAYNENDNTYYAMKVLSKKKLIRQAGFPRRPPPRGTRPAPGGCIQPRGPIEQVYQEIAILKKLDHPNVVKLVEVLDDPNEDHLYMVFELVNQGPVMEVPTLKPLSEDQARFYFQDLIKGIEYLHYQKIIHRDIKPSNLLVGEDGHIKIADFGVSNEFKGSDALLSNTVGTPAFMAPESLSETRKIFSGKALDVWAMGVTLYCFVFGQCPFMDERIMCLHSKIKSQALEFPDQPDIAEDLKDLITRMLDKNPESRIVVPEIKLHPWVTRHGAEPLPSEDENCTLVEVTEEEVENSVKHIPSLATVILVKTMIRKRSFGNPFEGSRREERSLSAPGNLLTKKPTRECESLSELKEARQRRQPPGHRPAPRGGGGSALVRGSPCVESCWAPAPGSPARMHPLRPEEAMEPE
Experimental: (§1) The analysis was performed by ProQinase (Freiburg, Germany).

[3] = target: T3, CDK20/CycT1 (Homo sapiens, UniProt Q8IZL9); experiment: Kinase profiling; type: biochemical
T3 construct: purchased ProQinase (Freiburg, Germany)
T3 sequence (Q8IZL9 whole entry): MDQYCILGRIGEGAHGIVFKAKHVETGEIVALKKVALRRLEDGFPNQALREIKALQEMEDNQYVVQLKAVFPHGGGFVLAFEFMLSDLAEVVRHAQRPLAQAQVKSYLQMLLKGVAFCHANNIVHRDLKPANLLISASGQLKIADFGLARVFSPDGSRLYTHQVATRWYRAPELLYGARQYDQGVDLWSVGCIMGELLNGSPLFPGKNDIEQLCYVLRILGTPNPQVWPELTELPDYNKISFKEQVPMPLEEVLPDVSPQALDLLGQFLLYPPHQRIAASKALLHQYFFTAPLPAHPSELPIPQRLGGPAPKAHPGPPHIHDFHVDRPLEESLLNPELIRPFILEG
T3 sequence (O60563 whole entry partner): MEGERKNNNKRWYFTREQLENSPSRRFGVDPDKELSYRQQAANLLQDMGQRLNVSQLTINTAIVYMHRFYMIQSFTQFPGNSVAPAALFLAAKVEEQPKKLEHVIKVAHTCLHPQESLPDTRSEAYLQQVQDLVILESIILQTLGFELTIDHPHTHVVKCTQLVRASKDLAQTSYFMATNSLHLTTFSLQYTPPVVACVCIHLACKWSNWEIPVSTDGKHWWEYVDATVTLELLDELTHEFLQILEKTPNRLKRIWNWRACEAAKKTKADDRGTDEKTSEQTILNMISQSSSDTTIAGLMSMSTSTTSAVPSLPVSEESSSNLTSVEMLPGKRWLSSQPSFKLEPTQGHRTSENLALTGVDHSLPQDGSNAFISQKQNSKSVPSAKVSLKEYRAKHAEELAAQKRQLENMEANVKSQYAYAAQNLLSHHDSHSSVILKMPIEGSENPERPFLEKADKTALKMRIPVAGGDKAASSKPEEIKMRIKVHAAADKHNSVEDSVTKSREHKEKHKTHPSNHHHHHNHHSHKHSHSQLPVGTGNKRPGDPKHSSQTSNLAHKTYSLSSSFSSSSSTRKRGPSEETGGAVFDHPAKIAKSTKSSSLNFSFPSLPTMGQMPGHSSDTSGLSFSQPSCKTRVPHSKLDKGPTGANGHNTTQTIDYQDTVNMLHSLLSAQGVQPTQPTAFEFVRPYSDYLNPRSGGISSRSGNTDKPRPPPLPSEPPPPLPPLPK
Experimental: as §1

[4] = target: T4, DYRK1A (Homo sapiens, UniProt Q13627); experiment: Kinase profiling; type: biochemical
T4 construct: purchased ProQinase (Freiburg, Germany)
Experimental: as §1

[5] = target: T5, MARK4 (Homo sapiens, UniProt Q96L34); experiment: Kinase profiling; type: biochemical
T5 construct: purchased ProQinase (Freiburg, Germany)
T5 sequence (Q96L34 1-752): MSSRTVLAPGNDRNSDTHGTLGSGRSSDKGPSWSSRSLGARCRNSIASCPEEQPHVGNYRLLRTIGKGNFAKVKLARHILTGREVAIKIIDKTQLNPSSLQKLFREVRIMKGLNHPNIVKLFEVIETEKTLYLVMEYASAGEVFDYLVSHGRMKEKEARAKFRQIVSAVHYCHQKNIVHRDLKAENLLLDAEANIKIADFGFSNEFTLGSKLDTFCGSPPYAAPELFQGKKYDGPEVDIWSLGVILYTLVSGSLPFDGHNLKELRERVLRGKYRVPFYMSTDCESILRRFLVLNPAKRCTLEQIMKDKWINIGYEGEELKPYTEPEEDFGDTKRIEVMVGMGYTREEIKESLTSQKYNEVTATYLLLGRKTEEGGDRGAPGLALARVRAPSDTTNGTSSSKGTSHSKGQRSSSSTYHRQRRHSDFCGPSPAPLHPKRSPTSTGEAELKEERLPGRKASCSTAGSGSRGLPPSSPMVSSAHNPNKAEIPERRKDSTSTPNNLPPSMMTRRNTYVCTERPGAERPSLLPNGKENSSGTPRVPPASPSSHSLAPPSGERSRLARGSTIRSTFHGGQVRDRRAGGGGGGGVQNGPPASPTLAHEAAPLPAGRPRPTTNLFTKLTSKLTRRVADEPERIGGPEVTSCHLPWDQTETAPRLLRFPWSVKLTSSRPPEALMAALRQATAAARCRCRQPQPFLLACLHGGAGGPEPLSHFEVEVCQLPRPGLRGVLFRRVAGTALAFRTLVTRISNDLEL
Experimental: as §1

[6] = target: T6, PDGFRalpha (Homo sapiens, UniProt P16234); experiment: Kinase profiling; type: biochemical
T6 construct: purchased ProQinase (Freiburg, Germany)
T6 sequence (P16234 24-1089): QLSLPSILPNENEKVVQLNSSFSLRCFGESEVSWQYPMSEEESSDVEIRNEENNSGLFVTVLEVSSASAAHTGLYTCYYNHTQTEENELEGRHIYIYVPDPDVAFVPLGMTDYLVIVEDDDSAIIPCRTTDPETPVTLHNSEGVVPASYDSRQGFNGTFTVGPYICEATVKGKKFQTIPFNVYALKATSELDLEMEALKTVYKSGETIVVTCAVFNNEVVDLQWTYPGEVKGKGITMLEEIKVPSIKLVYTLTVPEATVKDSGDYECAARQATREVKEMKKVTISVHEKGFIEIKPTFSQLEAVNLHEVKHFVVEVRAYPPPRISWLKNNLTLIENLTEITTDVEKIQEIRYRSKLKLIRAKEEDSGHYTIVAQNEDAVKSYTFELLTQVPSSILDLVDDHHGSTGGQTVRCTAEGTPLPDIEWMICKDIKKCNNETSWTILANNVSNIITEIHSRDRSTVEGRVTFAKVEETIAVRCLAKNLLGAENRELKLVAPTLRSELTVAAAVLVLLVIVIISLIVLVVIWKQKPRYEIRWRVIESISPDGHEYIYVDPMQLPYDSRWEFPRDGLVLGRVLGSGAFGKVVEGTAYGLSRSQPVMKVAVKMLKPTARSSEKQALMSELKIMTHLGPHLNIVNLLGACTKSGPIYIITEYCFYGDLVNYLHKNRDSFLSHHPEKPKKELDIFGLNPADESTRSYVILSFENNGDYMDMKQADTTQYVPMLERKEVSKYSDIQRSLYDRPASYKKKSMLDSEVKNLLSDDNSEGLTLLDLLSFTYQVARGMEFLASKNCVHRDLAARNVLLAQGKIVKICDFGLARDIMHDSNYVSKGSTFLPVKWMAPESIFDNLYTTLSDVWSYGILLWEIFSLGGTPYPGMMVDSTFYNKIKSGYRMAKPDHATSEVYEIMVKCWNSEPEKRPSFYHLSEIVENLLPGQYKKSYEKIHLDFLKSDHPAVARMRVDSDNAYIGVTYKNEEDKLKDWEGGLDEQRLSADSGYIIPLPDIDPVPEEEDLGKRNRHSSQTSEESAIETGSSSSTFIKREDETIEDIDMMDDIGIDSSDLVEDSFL
Experimental: as §1

[7] = target: T7, PXR (Homo sapiens, UniProt O75469); experiment: Competitive radioligand binding assay ([3H]SR12813); design: purchased Eurofins Cerep (contract assay service); conditions: 7 concentrations 0.01-10 µM, duplicate; read-out: IC50, inhibition of binding of 3H-labeled SR12813 to PXR
T7 sequence (O75469 1-434): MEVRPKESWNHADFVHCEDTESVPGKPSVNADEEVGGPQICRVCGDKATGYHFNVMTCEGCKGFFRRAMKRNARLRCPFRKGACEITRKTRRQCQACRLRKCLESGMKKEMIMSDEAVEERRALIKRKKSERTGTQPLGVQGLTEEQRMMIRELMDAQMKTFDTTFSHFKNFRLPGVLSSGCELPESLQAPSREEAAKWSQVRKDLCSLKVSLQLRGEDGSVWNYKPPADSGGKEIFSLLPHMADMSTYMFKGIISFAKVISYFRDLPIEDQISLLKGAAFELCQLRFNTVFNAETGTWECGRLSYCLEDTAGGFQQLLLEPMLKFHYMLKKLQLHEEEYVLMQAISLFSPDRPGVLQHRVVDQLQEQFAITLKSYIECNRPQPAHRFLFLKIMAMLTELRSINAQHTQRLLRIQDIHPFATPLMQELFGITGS
Experimental: The assay was performed by Eurofins Cerep (Celle-Lévescault, France). […] Compound binding was calculated as % inhibition of the binding of the radioactively labeled PXR ligand [3H]SR12813 to recombinant human PXR, as described previously.

| SMILES | activation of VDR, % of the effect of 1α,25-dihydroxy vitamin D3 ([1]; HepG2, 10 µM) | Residual activity ([2]; 1.0E-05 M) | Residual activity ([2]; 1.0E-06 M) | Residual activity ([3]; 1.0E-05 M) | Residual activity ([3]; 1.0E-06 M) | Residual activity ([4]; 1.0E-05 M) | Residual activity ([4]; 1.0E-06 M) | Residual activity ([5]; 1.0E-05 M) | Residual activity ([5]; 1.0E-06 M) | Residual activity ([6]; 1.0E-05 M) | Residual activity ([6]; 1.0E-06 M) | IC50 [7] | activation of VDR on their own ([1]; HepG2, 10 µM) | reduction of ligand-induced VDR activation [1] |
| --- | --- | --- | --- | --- | --- | --- | --- | --- | --- | --- | --- | --- | --- | --- |
| O=C(Nc1ccc(F)c(Nc2ccc3c(c2)CCCCC3=O)c1)c1cccc(F)c1 [Compound 109] | 5% | 81 % of control | 84 % of control | 101 % of control | 96 % of control | 92 % of control | 92 % of control | 91 % of control | 102 % of control | 92 % of control | 96 % of control | 2.9 µM | – | – |
| Cc1ccc(NC(=O)Cc2ccccc2)cc1Nc1ccc2c(c1)CCCCC2=O [Compound 73] | – | – | – | – | – | – | – | – | – | – | – | – | Neither CAR3 nor VDR were activated | 51% |
| O=C(Cc1ccccc1)Nc1ccc(F)c(Nc2ccc3c(c2)CCCCC3=O)c1 [Compound 100] | – | 95 % of control | 97 % of control | 92 % of control | 98 % of control | 98 % of control | 92 % of control | 94 % of control | 99 % of control | 95 % of control | 107 % of control | 4.5 µM | Neither CAR3 nor VDR were activated | no respective effects |
